Assay results published in US9073858B2, “Methods of targeted drug development” (priority 2010, dated 2015).
Like-named read-outs stand apart in the source and are kept apart here.

What was measured:
[1] = system: A549 cells; assay: A549 Cell Proliferation Assay (MTT); type: cell-based; conditions: Homo sapiens, A549, 72 h, read-out: IC50 Value (μM) A549 Cells
Procedure: Cell proliferation is determined using the MTT assay. The MTT cell proliferation assay is a colorimetric assay system which measures the reduction of a tetrazolium component (MTT) into an insoluble formazan product by the mitochondria of viable cells. After incubation of the cells with the MTT reagent, DMSO is added to solubilize the colored crystals and the samples read at a wavelength of 560 nm. The amount of color produced is directly proportional to the number of viable cells. […] L11939) was prepared at 5 mg/ml in PBS. […] Plates were read on the PolarStar plate reader at 560 nm. […] IC50 values were calculated in GraphPad Prism using non-linear regression curve fitting. All statistical analyses was done either in GraphPad Prism or Microsoft Excel. […] Briefly, compounds are added to cells plated in 96-well plates. The cells are allowed to grow for 72 hours before MTT treatment. The effect of the compounds on cell proliferation is analyzed using GraphPad Prism. A549 cells are a non-small cell lung cancer cell line that have wild type EGFR and p53 but have point mutations in KRAS gene which transform it into an oncogene. […] SH30071.03, lot no. ATB31500), 1% Pen Strep (Gibco, cat no. […] On day 2, working solutions of compounds at 200× were prepared. […] Plates were incubated for 72 hours before analyzing them with MTT (as described above).

[2] = system: H1975 cells; assay: H1975 Cell Proliferation Assay (MTT); type: cell-based; conditions: Homo sapiens, NCI-H1975, 72 h, read-out: IC50 Value (μM) H1975 Cells
Procedure: Cell proliferation is determined using the MTT assay. The MTT cell proliferation assay is a colorimetric assay system which measures the reduction of a tetrazolium component (MTT) into an insoluble formazan product by the mitochondria of viable cells. After incubation of the cells with the MTT reagent, DMSO is added to solubilize the colored crystals and the samples read at a wavelength of 560 nm. The amount of color produced is directly proportional to the number of viable cells.
3-(4,5-Dimethylthiazol-2-yl)-2,5-diphenyltetrazolium Bromide (MTT) dye (Aesar, cat no. L11939) was prepared at 5 mg/ml in PBS. To each well, 20 μl of MTT solution was added to existing media and mixed thoroughly with 5 mins of gentle shaking at room temperature. Plates were incubated at 37° C., 5% CO2 for approximately 2 hrs. After 2-3 hrs incubation, media was aspirated out and plates were patted dry. […] Plates were incubated at 37° C., 5% CO2 for 10 min and mix thoroughly with 5 mins of gentle shaking at room temperature. Plates were read on the PolarStar plate reader at 560 nm. Percent (%) inhibition was calculated as 100%−(OD560 nm experimental-blank)×100%/OD560 nm control-blank. Blank=wells+serum free media+0.5% DMSO. Experimental=wells+cells+treatment+0.5% DMSO. Control=wells+cells+0.5% DMSO. IC50 values were calculated in GraphPad Prism using non-linear regression curve fitting. All statistical analyses was done either in GraphPad Prism or Microsoft Excel.
Briefly, compounds are added to cells plated in 96-well plates. The cells are allowed to grow for 72 hours before MTT treatment. The effect of the compounds on cell proliferation is analyzed using GraphPad Prism.

[3] = system: caspase 3,7 activity in A431 cells; assay: cells; conditions: for Emax at 8 µM / Emax at 16 µM: Homo sapiens, A-431, read-out: Total Apoptosis (increase in caspase 3,7 activity as percentage of the maximal response); for Ability to Synergize with Tarceva: caspase 3,7 activity, A431 cells
From the text: As described below, the capsase 3,7 assay uses the Promega Caspase-Glo 3/7 assay kit (cat no. G8092).
The Caspase-Glo® 3/7 Assay is a luminescent assay that measures caspase-3 and −7 activities in purified enzyme preparations or cultures of adherent or suspension cells. The assay provides a proluminescent caspase-3/7 substrate, which contains the tetrapeptide sequence, DEVD. This substrate is cleaved to release aminoluciferin, a substrate of luciferase used in the production of light. The Caspase-Glo® 3/7 Reagent has been optimized for caspase activity, luciferase activity and cell lysis. The addition of the single Caspase-Glo® 3/7 Reagent in an “add-mix-measure” format results in cell lysis, followed by caspase cleavage of the substrate and generation of a “glow-type” luminescent signal. The Caspase-Glo® 3/7 Assay is designed for use with multiwell plate formats, making it ideal for automated high-throughput screening of caspase activity or apoptosis.
Staurosporine was used as a positive control.
For the capsase 3,7 assay, cells were incubated for 5.5 hrs at 37° C., 5% CO2. The plate was removed from the incubator and equilibrated to room temperature. After 30 min, 25 μl Caspase 3/7 detection reagent (Promega Caspase-Glo 3/7 assay kit, cat no. G8092) was added to each well. The plate was covered with tin foil and shaken on a plate shaker at speed 4 for 3 min. The plate was then incubated for an additional 60 min at room temperature. Luminescence was detected using the PolarStar plate reader.
All statistical analyses were done using GraphPad Prism.
The assay was stopped after 6 hrs and the presence of caspase was measured using the Promega Caspase-Glo® 3/7 Assay.

[4] = system: annexin V in A549 cells; conditions: for % Total Apoptosis: cells in early- and late-stage apoptosis; for % Relative to Reference Cpd.: reference 4.0 μM camptothecin or 1.0 μM staurosporin
From the text: Assays that measure apoptosis are utilized to determine whether or not compounds can induce programmed cell death in cancer cells. Annexin V is a protein that is used to detect apoptosis by binding to phosphatidylserine expressed on membranes of dead or dying cells. Fluorescently tagged with FITC, it can he used in conjunction with 7-aminoactinomycin D to determine the percentage of cells undergoing apoptosis via flow cytometry. Cells in early apoptosis will emit an FITC signal which will eventually be replaced by the far red 7-AAD signal that is associated with cell membrane permeability due to necrosis.
In brief, for the Annexin V Assay, compounds were added to cells plated in 6-well plates. Treated cells were incubated for up to 30 hours before addition of fluorescent cell marker probes that detect the presence of annexin V. The percentage of cells undergoing apoptosis and necrosis were determined by flow cytometry.
On day 2, working solutions of compounds (at 1000×) were prepared. To 2.0 ml media/well was added 2 μl 1000× compound diluted in 100% DMSO for final DMSO concentration of 0.1%. On day 3, plates were incubated for 30 hrs. […] Cells were collected by centrifugation at 300×g for 5 min.
Resuspended cells were stored at 4° C. in the dark, until flow cytometry analysis.
For flow cytometry analysis of the Annexin V Assay, sample acquisition was on the BD LSR II manufactured by BD Biosciences, San Jose, Calif. […] 10,000 events werer collected based on a stopping gate of forward scatter vs side scatter light. Acquisition was done through BD FACS DiVa software version 6.1.1 on high flow rate (60 μL/min). Calculations were as follows: Quadrant 3=lower left=live cells; Quadrant 4=lower right=early apoptosis; Quadrant 2=upper right=late apoptosis; Quadrant 1=upper left=dead cells. Percent (%)Total apoptosis was calculated as early (quadrant 4)+late (quadrant 2). Percent (%) ratio apoptosis was calculated as (experimental-No treatment/positive control)*100. All statistical analyses are done using GraphPad Prism or Microsoft Excel.

[5] = Stability on incubation with mouse liver microsomes (MLM); type: in vitro ADME; conditions: percentage left after incubation with mouse liver microsomes for 30 minutes
Outline: (§1)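 Values are percent compound remaining after 30 min incubation with mouse or human liver microsomes.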

[6] = system: HT-29 cells; assay: HT-29 Cell Proliferation Assay (MTT); type: cell-based; conditions: for IC50: Homo sapiens
[7] = Stability on incubation with human liver microsomes (HLM); type: in vitro ADME; conditions: percentage left after incubation with human liver microsomes for 30 minutes
Outline: as §1

[8] = system: DNA fragmentation in A549 cells; assay: DNA Fragmentation Assay (Cell Death Detection ELISA); type: cell-based; conditions: Caspase, DNA Fragmentation, Annexin-V
[9] = system: EGF receptor-mediated cell proliferation; assay: Combinatorial studies with known EGFR inhibitors, median effect analysis (MTT assay)
Procedure: Studies were initiated to evaluate the ability of various compounds disclosed herein to synergize with several compounds known to inhibit the function of the EGF receptor in a cell proliferation assay (MTT assay).
The EGFR inhibitor and AD4 compound dilutions were then mixed 1:1 in a 96 well plate. 50 μl of the mix was then added to the cell plate.
A shifting of the inhibitor curve to the left indicates an increase in the effectiveness of the AD4-compound.

[10] = HT-29, 72 h, read-out: IC50 Value (μM) HT-29 Cells

Compound	IC50 [1] [µM]	IC50 [2] [µM]	Emax at 8 µM [3] [%]	Emax at 16 µM [3] [%]	Ability to Synergize with Tarceva [3]	IC50 [6, 10] [µM]	other results
Cc1ccnc(NC(c2cc(Cl)cc(Cl)c2Cl)c2ccc3cccnc3c2O)c1 (stereo not shown) [AD4-13072]	0.15	0.29	38	49	+++ (0.3-0.7 Synergism)	–	–
Cc1cc(Cl)cnc1NC(c1cccc(Cl)c1Cl)c1ccc2cccnc2c1O (stereo not shown) [AD4-13147]	0.11	0.29	–	–	–	0.77	% Total Apoptosis ([4]; 1 μM, A549 cells): 29%; % Total Apoptosis ([4]; 10 μM, A549 cells): 28%; MLM % Remaining@ 30 Min [5]: 44%; HLM % Remaining@ 30 Min [7]: 98%
Oc1c(C(Nc2ncc(F)cc2F)c2cc(Cl)cc(Cl)c2Cl)ccc2cccnc12 (stereo not shown) [AD4-13181]	0.12	0.58	43	47	++ (0.7-0.85 Moderate synergism)	–	–
Oc1c(C(Nc2cc(Cl)c(Cl)cn2)c2ccc(F)cc2Cl)ccc2cccnc12 (stereo not shown) [AD4-13185]	0.18	0.23	–	–	–	1.2	apoptosis, share of the cell population ([4]; 1 μM, A549 cells, FIG. 16B): greater than 50%; % Total Apoptosis ([4]; 1 μM, A549 cells): 42%; % Relative to Reference Cpd. ([4]; 1 μM): 161%; late apoptosis, share of the cell population ([4]; 10 μM, A549 cells, FIG. 16B): up to 20%; % Total Apoptosis ([4]; 10 μM, A549 cells): 30%; % Relative to Reference Cpd. ([4]; 10 μM): 202%; MLM % Remaining@ 30 Min [5]: 57%; apoptotic activity [8]: increased apoptotic activity; HLM % Remaining@ 30 Min [7]: 98%
CCc1cc(Cl)cnc1NC(c1cccc(Cl)c1Cl)c1ccc2cccnc2c1O (stereo not shown) [AD4-13215]	0.16	–	20	27	++ (0.7-0.85 Moderate synergism)	0.97	–
Cc1nc(NC(c2cc(Cl)ccc2Cl)c2ccc3cccnc3c2O)c(Cl)cc1Cl (stereo not shown) [AD4-13220]	0.12	–	32	40	+ (0.85-0.9 Slight synergism)	3.3	–
C#Cc1cccc(Nc2ncnc3cc(OCCOC)c(OCCOC)cc23)c1 [Tarceva, reference compound]	–	–	–	–	–	–	HT-29 Cell Proliferation Assay Results (IC50) [6]: No Effect; IC50 ([6]; HT-29, 72 h, read-out: IC50, Comparison of Incubation Times in HT-29 Cell Proliferation Assay): 15 µM; IC50 ([6]; HT-29, read-out: IC50 from dose-response curves of FIG. 11, HT-29 cells): 12 µM; synergy with Tykerb [9]: did not produce synergistic effects
